# Reference: ChEMBL document CHEMBL1201862, “PubChem BioAssay data set” (2004)
# Calls of active or inactive are those of the source.
# Assays:
# Leucine aminopeptidase = biological target: T1, Leucine aminopeptidase (Plasmodium falciparum 3D7, UniProt Q8IL11); assay: P. falciparum M17LAP inhibitors, primary screen, biochemical, fluorogenic H-Leu-NHMec substrate, 1536-well (AID 1619); type: functional
# T1 sequence (Q8IL11 whole entry): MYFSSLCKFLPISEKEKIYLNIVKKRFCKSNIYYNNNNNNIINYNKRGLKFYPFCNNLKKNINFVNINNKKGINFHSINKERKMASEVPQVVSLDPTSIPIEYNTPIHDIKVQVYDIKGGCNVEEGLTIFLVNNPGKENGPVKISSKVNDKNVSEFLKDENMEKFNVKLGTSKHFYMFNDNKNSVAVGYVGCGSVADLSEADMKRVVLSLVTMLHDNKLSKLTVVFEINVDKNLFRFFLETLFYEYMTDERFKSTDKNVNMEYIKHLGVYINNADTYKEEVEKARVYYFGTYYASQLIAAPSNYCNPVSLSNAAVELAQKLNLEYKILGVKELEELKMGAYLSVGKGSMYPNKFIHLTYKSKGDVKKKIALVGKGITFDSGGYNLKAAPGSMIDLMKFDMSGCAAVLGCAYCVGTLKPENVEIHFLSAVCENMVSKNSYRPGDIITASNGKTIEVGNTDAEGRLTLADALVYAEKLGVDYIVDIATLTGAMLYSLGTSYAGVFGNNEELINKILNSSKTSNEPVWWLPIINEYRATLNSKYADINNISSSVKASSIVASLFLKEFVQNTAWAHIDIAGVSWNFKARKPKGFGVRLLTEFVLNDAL
# Aspartyl aminopeptidase = biological target: T2, Aspartyl aminopeptidase (Plasmodium falciparum 3D7, UniProt Q8I2J3); assay: Counterscreen for inhibitors of M1 and M17 aminopeptidases: QFRET-based biochemical high throughput dose response assay for inhibitors of the Plasmodium falciparum M18 Aspartyl Aminopeptidase (PFM18AAP). [Related PubChem assays: 1619 (Screening assay (M17LAP inhibitors).), 1445 (Screening assay (M1AAP inhibitors).)]
# T2 sequence (Q8I2J3 whole entry): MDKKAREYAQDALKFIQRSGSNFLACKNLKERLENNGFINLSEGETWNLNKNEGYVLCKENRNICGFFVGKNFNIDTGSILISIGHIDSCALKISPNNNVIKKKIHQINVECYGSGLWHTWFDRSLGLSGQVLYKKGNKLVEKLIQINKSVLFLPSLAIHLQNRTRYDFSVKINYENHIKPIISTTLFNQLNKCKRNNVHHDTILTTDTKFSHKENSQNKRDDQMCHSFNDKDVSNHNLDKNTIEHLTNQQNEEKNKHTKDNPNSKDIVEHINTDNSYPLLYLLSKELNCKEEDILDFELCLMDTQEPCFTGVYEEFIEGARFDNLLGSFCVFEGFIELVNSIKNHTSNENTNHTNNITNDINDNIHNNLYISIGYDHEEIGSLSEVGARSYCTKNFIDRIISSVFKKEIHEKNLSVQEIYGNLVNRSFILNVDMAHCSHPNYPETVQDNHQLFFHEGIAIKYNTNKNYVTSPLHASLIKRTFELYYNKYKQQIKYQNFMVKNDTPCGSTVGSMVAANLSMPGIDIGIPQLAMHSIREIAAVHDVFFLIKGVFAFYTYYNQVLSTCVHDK
# Procathepsin L = Procathepsin L (Homo sapiens, UniProt P07711); assay: CTSL1 protease inhibition – biochemical, QFRET, 1536-well, counter-screen for M1/M17 aminopeptidase inhibitor project, dose response (AID 2214)
# Procathepsin L, sequence (P07711 whole entry): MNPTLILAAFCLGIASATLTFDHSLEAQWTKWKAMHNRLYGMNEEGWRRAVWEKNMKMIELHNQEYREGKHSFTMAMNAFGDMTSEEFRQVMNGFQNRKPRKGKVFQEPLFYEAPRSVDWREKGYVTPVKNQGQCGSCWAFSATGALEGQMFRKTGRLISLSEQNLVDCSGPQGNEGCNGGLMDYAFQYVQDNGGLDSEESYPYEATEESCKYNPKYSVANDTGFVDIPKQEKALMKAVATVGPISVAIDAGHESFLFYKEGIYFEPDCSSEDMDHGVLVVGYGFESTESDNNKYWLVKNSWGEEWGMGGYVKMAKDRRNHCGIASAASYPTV
# [1] = viability of uninfected HEp-2 cells – cell-based, HTS, cytotoxicity control for RSV inhibitor project, dose response (AID 2410); type: functional; conditions: human respiratory syncytial virus
# [2] = biological target: T3, Aryl hydrocarbon receptor (Homo sapiens, UniProt P35869); assay: Luminescence-based cell-based high throughput dose response assay for activators of the Aryl Hydrocarbon Receptor (AHR). [Related pubchem assays: 2796 (Primary screen (AHR activators in singlicate)), 2845 (Confirmation screen (AHR activators in triplicate)), 434939 (Counterscreen (PXR activators in triplicate)), 2804 (Summary (AHR activators))]; type: ADME
# T3 sequence (P35869 whole entry): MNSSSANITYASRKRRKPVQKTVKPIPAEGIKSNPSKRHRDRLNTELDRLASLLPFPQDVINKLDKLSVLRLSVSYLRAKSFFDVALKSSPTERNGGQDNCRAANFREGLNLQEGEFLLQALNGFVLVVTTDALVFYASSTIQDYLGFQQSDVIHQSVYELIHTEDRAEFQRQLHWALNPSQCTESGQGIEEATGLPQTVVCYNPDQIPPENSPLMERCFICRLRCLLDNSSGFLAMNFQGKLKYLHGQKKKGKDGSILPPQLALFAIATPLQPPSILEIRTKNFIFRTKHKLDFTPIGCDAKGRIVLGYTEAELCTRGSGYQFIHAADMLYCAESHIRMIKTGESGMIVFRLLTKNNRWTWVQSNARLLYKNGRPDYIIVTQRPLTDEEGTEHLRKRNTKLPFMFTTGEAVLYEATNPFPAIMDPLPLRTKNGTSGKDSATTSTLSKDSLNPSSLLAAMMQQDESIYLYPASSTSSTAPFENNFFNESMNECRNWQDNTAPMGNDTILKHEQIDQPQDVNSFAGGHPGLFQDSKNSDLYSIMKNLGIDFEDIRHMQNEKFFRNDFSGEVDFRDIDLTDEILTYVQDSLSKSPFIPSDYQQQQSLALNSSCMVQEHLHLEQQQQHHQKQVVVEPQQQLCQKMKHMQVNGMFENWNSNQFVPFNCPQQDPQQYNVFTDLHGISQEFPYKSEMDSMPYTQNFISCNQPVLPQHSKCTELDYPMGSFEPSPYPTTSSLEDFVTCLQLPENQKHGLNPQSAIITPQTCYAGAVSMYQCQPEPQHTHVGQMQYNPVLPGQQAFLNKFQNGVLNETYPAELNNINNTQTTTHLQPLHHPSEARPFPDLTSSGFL
# Prothrombin = Prothrombin (Homo sapiens, UniProt P00734); assay: Thrombin 1536 HTS Dose Response Confirmation. [Related pubchem assays: 1046 (Thrombin 1536 HTS; hits were confirmed in this assay)]; type: functional
# [3] = biological target: Peroxisome proliferator-activated receptor gamma/Nuclear receptor coactivator 1 (Homo sapiens, UniProt P37231); type: functional;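 further: agonist potency as compounds enhance coactivator SRC-1 recruitment to PPARgamma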
# [4] = biological target: Peroxisome proliferator-activated receptor gamma/Nuclear receptor coactivator 3 (Homo sapiens, UniProt P37231); type: functional;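 further: agonist potency for raising coactivator recruitment to the receptor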
# [5] = biological target: Peroxisome proliferator-activated receptor gamma/Nuclear receptor coactivator 2 (Homo sapiens, UniProt P37231); type: functional;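 further: agonist potency for raising coactivator recruitment to the receptor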
# [6] = microbe, parasite or virus in culture; type: functional; conditions: Mycobacterium tuberculosis
# cells [7] = type: functional
# [8] = Trypanosoma cruzi growth suppression in host cells – NIH3T3 host cells, beta-gal luminescence, confirmation (AID 2044); type: functional, cell-based;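 further: intracellular parasites grown in NIH/3T3 mouse fibroblasts as host cells; luminescent beta-galactosidase reporter signal from transgenic T. cruzi replicating inside host cells; inhibitors lower the luminescence signal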
# cells [9] = assay: cells
# [10] = NIH3T3 cell viability loss – ATP luminescence, mouse fibroblasts, counter-screen, dose response (AID 2010); type: functional, cell-based;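 further: cells exposed to compound for about 90 hours before reading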
# Estrogen receptor = biological target: T4, Estrogen receptor (Homo sapiens, UniProt P03372);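 further: potency for inhibiting coactivator peptide recruitment to the receptor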
# T4 sequence (P03372 whole entry): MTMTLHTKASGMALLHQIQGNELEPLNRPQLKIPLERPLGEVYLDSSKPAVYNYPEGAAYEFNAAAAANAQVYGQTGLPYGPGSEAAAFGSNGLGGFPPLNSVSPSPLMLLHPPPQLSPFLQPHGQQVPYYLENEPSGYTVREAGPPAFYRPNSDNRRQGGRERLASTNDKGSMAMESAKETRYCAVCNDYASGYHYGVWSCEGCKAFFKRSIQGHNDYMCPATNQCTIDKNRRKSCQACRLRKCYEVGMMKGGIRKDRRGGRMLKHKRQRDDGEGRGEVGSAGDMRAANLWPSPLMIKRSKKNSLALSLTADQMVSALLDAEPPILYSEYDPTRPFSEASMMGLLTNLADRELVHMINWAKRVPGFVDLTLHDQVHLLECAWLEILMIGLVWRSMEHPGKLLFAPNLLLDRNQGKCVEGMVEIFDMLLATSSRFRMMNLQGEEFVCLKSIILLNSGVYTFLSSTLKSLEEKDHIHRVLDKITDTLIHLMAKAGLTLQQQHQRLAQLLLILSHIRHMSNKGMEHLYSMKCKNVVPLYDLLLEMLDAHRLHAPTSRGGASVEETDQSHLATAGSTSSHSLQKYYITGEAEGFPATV
# [11] = biological target: T5, Mannose-6-phosphate isomerase (Homo sapiens, UniProt P34949); assay: MPI inhibition at elevated mannose 6-phosphate – biochemical, fluorescence intensity, high mannose 6-phosphate, primary screen (AID 1220)
# T5 sequence (P34949 whole entry): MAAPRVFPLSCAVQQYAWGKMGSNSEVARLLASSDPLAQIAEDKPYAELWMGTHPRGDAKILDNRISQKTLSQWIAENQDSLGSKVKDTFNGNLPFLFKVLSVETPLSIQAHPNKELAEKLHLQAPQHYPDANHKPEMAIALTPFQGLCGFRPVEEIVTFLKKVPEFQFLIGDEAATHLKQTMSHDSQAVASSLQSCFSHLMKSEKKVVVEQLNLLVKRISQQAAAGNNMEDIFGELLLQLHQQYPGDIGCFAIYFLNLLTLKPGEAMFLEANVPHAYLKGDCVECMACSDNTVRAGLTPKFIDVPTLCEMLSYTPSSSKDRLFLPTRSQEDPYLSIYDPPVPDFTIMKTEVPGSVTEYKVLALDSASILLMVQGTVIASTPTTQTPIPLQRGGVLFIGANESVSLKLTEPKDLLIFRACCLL
# [12] = biological target: Eukaryotic translation initiation factor 4E (Mus musculus, UniProt P63073); assay: blockers of eIF4G binding by eIF4E – biochemical, TR-FRET, dose response (AID 855); type: functional;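 further: potency for disrupting eIF4E binding to eIF4GI seen as loss of FRET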
# [13] = biological target: DNA dC->dU-editing enzyme APOBEC-3G (Homo sapiens, UniProt Q9HC16); assay: Dose Response confirmation of small molecule APOBEC3G DNA Deaminase Inhibitors via a fluorescence-based single-stranded DNA deaminase assay. [Related pubchem assays (depositor defined):AID493012, AID493028]; type: functional
# DNA dC->dU-editing enzyme APOBEC-3G, sequence (Q9HC16 whole entry): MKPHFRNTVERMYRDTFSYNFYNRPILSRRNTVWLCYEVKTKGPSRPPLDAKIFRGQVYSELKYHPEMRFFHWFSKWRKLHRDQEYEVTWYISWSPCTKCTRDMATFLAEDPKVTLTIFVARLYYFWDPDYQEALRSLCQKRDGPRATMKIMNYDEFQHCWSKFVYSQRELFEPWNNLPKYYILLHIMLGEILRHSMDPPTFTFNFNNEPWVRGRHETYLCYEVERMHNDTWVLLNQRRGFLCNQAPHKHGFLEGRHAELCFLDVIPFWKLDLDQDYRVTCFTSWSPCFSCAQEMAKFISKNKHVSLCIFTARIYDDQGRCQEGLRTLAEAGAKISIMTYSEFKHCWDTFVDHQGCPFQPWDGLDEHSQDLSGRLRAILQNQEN
# [14] = biological target: DNA dC->dU-editing enzyme APOBEC-3A (Homo sapiens, UniProt P31941); assay: A3A deaminase inhibition for selectivity – biochemical, dose response (AID 504722); type: functional
# DNA dC->dU-editing enzyme APOBEC-3A, sequence (P31941 whole entry): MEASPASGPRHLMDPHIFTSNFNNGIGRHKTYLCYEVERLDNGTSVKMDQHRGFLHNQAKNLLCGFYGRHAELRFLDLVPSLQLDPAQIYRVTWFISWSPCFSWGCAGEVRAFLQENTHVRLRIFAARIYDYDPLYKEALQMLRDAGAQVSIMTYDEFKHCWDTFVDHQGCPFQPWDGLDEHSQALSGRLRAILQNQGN
# [15] = biological target: T6, Voltage-gated N-type calcium channel alpha-1B subunit/Amyloid beta A4 precursor protein-binding family A member 1 (Homo sapiens, UniProt Q00975+Q02410); type: protein assay
# T6 sequence (Q00975 whole entry): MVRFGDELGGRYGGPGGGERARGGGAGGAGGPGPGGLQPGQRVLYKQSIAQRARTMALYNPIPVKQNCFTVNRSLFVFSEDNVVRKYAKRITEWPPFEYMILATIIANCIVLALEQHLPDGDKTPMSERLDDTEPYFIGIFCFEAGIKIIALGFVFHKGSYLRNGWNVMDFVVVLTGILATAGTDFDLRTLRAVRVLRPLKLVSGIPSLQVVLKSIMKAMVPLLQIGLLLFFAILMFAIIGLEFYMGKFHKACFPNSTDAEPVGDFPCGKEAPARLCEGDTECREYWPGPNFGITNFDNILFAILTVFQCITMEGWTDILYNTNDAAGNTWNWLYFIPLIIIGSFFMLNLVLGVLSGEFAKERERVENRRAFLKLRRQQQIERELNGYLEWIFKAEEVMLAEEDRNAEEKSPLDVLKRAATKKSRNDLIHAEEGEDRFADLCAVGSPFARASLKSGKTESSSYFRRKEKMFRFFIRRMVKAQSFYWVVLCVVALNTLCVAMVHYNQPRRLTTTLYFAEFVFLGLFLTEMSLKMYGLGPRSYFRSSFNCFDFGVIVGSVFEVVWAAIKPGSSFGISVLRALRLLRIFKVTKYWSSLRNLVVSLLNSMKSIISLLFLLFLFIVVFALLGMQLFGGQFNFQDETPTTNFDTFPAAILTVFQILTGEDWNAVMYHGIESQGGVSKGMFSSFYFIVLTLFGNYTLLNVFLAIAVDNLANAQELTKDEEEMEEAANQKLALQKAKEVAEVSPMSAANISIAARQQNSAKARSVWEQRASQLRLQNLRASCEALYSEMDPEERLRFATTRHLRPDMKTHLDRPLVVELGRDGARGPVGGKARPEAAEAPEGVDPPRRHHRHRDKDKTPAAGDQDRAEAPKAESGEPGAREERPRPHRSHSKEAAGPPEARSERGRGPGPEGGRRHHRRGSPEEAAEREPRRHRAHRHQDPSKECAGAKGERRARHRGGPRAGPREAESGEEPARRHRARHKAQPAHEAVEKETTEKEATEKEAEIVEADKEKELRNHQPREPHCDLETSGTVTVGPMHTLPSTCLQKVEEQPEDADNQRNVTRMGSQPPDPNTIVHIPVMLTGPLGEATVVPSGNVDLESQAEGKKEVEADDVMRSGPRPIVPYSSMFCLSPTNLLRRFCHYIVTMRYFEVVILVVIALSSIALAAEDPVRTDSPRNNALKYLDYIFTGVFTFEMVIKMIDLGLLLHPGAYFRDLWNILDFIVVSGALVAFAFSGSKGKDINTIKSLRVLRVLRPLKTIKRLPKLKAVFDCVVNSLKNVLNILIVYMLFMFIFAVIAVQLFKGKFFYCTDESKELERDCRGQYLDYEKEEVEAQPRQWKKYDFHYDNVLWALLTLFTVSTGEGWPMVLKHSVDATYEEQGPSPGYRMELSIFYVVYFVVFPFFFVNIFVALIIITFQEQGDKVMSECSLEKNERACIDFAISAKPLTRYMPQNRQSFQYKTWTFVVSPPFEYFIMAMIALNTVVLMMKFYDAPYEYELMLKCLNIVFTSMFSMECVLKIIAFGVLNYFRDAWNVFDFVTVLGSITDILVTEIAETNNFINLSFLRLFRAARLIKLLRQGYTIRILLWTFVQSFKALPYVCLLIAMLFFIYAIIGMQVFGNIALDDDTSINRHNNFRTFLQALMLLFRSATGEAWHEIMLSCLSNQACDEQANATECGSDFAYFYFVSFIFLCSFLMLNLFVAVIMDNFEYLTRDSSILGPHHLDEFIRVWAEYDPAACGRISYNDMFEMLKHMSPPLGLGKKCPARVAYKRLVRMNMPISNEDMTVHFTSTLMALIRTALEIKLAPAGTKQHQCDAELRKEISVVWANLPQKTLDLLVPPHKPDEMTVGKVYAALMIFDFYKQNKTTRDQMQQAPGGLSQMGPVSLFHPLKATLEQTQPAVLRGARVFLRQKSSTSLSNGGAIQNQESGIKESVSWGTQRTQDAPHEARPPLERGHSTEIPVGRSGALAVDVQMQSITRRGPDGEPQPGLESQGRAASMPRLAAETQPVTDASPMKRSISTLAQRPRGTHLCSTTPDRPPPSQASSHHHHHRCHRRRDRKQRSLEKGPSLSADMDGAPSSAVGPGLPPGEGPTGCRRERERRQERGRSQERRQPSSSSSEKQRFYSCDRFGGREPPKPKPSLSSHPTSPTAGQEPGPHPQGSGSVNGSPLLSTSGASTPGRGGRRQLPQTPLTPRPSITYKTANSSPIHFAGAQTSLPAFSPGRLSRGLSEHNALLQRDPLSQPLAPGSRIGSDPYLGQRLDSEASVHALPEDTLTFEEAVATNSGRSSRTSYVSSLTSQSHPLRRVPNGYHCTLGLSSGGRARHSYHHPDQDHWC
# T6 sequence (Q02410 whole entry): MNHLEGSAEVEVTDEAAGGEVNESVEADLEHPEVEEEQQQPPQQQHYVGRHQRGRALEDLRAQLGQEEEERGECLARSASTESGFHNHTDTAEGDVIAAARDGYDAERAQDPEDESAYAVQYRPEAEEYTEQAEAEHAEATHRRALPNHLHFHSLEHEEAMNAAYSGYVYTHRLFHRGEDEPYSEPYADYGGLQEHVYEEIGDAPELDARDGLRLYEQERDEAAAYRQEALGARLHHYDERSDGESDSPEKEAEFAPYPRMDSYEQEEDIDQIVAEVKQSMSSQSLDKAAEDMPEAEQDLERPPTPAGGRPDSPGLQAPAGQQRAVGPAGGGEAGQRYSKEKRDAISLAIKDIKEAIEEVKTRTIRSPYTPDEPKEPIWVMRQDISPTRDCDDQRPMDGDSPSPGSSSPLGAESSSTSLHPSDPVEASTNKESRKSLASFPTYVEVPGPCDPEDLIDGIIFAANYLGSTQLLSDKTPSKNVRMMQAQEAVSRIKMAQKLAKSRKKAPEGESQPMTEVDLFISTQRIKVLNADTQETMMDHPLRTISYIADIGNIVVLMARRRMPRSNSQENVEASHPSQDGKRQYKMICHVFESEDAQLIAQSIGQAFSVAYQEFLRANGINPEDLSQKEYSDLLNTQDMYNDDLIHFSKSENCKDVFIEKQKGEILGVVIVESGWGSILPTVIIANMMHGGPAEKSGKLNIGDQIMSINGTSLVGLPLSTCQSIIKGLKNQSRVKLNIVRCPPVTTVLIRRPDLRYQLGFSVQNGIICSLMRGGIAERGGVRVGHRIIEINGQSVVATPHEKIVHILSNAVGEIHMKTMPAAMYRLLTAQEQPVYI
# [16] = biological target: T6, Voltage-gated N-type calcium channel alpha-1B subunit/Amyloid beta A4 precursor protein-binding family A member 1; type: protein assay; remark: listed apart in the source
# Estrogen receptor beta [17] = biological target: T7, Estrogen receptor beta (Homo sapiens, UniProt Q92731); assay: blockers of SRC-3 recruitment to ERβ – biochemical, ELISA, streptavidin-HRP readout, orthogonal assay, confirmation (AID 1060)
# T7 sequence (Q92731 whole entry, the tested form may be a part): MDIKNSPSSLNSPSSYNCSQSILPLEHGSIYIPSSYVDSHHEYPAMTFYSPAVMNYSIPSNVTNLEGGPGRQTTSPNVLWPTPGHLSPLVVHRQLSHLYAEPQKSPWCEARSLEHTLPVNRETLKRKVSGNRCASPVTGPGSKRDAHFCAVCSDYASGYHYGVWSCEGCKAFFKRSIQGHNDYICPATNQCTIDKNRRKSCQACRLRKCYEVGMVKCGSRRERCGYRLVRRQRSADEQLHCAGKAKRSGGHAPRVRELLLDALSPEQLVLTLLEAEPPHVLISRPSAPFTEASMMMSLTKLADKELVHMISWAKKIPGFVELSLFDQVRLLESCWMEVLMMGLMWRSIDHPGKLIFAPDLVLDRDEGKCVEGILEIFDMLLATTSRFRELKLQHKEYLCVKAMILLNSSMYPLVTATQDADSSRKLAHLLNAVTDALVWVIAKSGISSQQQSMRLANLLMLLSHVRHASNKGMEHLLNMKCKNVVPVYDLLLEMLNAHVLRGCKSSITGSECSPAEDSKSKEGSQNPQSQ
# [18] = biological target: T8, Carboxy-terminal domain RNA polymerase II polypeptide A small phosphatase 1 (Homo sapiens, UniProt Q9GZU7); assay: CTDSP1 inhibitors, concentration-response, biochemical, absorbance readout, ultra-high-throughput screen actives (AID 540297); type: functional
# T8 sequence (Q9GZU7 whole entry): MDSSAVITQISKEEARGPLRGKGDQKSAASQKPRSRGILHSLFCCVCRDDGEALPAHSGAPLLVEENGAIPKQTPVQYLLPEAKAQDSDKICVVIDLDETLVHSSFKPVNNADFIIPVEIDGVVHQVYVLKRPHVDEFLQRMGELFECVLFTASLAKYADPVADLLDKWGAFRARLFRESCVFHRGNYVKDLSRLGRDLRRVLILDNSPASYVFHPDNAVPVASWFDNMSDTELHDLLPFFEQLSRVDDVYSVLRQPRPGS
# [19] = biological target: Induced myeloid leukemia cell differentiation protein Mcl-1 (Homo sapiens, UniProt Q07820); type: functional
# Induced myeloid leukemia cell differentiation protein Mcl-1, sequence (Q07820 whole entry): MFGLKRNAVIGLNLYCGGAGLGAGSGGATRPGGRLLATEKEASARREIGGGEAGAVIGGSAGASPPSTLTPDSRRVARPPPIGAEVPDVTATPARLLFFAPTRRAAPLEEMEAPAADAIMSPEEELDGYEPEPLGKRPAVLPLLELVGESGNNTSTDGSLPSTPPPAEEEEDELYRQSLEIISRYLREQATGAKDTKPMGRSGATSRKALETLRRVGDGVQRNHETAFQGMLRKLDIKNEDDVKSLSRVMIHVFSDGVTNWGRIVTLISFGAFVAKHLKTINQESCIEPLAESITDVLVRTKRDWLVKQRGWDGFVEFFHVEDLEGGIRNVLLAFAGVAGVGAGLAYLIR
# Estrogen receptor beta [20] = biological target: T7, Estrogen receptor beta
smiles,measurement,setting,value
CC1(C)Cc2c(sc(NC(=O)C3CC(Cl)=CCC3C(=O)O)c2C#N)CO1 (stereo unspecified),IC50,Leucine aminopeptidase,1.4 µM (active)
same,IC50,Aspartyl aminopeptidase,> 73.5 µM (not active)
same,IC50,Procathepsin L,> 59.6 µM (not active)
Cc1cc(C)n2cc(-c3ccc(Cl)cc3)c(C(=O)O)c2n1,CC50,[1],38.9 µM (active)
same,EC50,[2],0.994 µM (active)
CCOC(=O)c1sc(NC(=O)/C=C/c2cnn(C)c2C)c(C(=O)OCC)c1C,IC50,Prothrombin,> 50 µM (not active)
COc1cc(OC)cc(-n2nnnc2SCC(=O)Nc2ccc(C(C)=O)cc2)c1,IC50,Prothrombin,> 50 µM (not active)
same,EC50,[3],8.56 µM (active)
same,EC50,[4],8.1 µM (active)
same,EC50,[5],5.13 µM (active)
O=C(c1cc([N+](=O)[O-])cc([N+](=O)[O-])c1)N(Cc1nnc(-c2ccccc2Cl)o1)C1CC1,CC50,[6],> 40 µM (active)
same,IC50,cells [7],1.75 µM (active)
same,EC50,[8],< 0.1 µM (active)
same,EC50,cells [9],0.068 µM (active)
same,EC50,[10],> 60 µM (not active)
C=CCn1c(N)cc(=O)nc1SCC(=O)Nc1ccc2ccccc2c1,IC50,Leucine aminopeptidase,5.68 µM (active)
same,IC50,Aspartyl aminopeptidase,> 73.5 µM (not active)
same,IC50,Procathepsin L,> 59.6 µM (not active)
CN(C)c1ccc(CNCCC2CCOC(C)(C)C2)cc1 (stereo unspecified),EC50,[8],< 0.1 µM (active)
same,EC50,cells [9],0.036 µM (active)
same,EC50,[10],> 30 µM (not active)
O=C(Nc1cccc(-c2cn3cccnc3n2)c1)c1ccc2c(c1)OCO2,IC50,Estrogen receptor,6.67 µM (active)
Nc1c(C(=O)c2ccc(Br)cc2)oc2ccccc12,EC50,[2],3.3 µM (active)
CCOC(=O)c1ccc(/N=c2\ssnc2Cl)cc1,IC50,[11],> 50 µM (not active)
same,IC50,[12],50 µM (inactive)
same,IC50,[13],13.8 µM (active)
same,IC50,[14],> 100 µM (inactive)
same,IC50,[15],7.13 µM (active)
same,IC50,[16],11.5 µM (active)
CCN(/N=C/c1ccc(Cl)cc1)c1cc(=O)n(C)c(=O)[nH]1,EC50,[2],1.12 µM (active)
Cc1ccc(/C=c2\sc3nc(-c4ccccc4Br)nn3c2=O)o1,IC50,Prothrombin,> 50 µM (not active)
same,IC50,Leucine aminopeptidase,95.5 µM (active)
same,IC50,Estrogen receptor beta [17],0.0611 µM (not active)
same,IC50,[18],5.95 µM (active)
same,IC50,[19],3.18 µM (active)
same,IC50,Estrogen receptor beta [20],> 50 µM (not active)
